Measurements as given in patent US12440466B2, “Fatty acid derivatives for treating non-alcoholic steatohepatitis” (BASF AS, priority 2017, dated 2025).

Tested on: CDAA/high-fat fed mice
Assay: Hepatic lipidomic analysis, CDAA/high-fat diet mouse model
Format: in vivo
Details: Compound A 112 mg/kg bw per day or equimolar EPA, orally
Procedure: In Biological Examples 1-7, studies were performed in male C56BL/6J mice (9 weeks old). Mice were fed either choline-sufficient (CS) or choline deficient high-fat diets (31% total calories; “CDAA/high-fat”). The NASH inducing diet was instigated 6 weeks prior to the commencement of treatment in order to design the study as a treatment/reversal set-up rather than prophylaxis.
In Biological Example 7, after 6 weeks of either the CS or CDAA/high-fat diet, mice were administered 112 mg/kg bw per day of Compound A, or an equimolar dose of eicosapentaenoic acid (EPA), delivered orally. Hepatic lipidomic analysis was performed in isolated liver samples from CS (n=9), Compound A (n=9) and EPA (n=8) groups.
To further understand the effects of Compound A on hepatic lipid metabolism, lipidomic analysis of CS- and CDAA/high-fat fed mice (“CD”) was performed in isolated liver tissue.

CC/C=C\C/C=C\C/C=C\C/C=C\C/C=C\CCCCOC(CC)C(=O)O (stereo not shown) [Compound A, 2-((5Z,8Z,11Z,14Z,17Z)-icosa-5,8,11,14,17-pentaenyloxy)butanoic acid]
significantly reduced: hepatic cholesteryl ester | hepatic diglycerides (DG) | hepatic free fatty acids (FFA) | hepatic triglyceride (TG)
